Assay [1] addresses T1, Beta-secretase 1 (Homo sapiens, UniProt P56817). The assay is described as follows: Inhibition of BACE1 at 2 uM.
For assay [2], the target named is T1, Beta-secretase 1. The assay is described as follows: Inhibition of BACE1 at 0.2 uM.
For assay [3], the target named is T1, Beta-secretase 1. Nature of the assay: Inhibition of BACE1.

T1 sequence (P56817 whole entry): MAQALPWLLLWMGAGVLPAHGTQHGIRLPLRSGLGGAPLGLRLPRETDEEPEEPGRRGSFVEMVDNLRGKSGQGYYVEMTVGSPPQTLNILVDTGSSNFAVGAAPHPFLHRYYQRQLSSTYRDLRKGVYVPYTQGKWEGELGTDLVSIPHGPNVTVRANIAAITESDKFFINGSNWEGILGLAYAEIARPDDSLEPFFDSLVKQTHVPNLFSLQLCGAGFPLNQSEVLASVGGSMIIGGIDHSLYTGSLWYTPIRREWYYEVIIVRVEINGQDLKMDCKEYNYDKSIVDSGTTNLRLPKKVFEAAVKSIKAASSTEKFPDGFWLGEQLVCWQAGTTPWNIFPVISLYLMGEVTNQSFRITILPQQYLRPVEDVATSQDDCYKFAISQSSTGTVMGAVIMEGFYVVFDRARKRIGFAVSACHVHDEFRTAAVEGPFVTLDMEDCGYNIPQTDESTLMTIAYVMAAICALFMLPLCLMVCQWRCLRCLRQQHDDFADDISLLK

Turning to `CC(C)C[C@H](NC(=O)[C@@H](NC(=O)[C@@H](N)CNC(=O)c1nn[nH]n1)C(C)C)C(=O)N[C@@H](Cc1ccccc1)[C@@H](O)C(=O)Nc1cc(-c2nn[nH]n2)cc(-c2nn[nH]n2)c1`, the inhibition against Beta-secretase 1 [1] and at Beta-secretase 1 [2] was 100% throughout.

As to `CC(C)C[C@H](NC(=O)[C@@H](NC(=O)[C@@H](N)CNC(=O)c1nn[nH]n1)C(C)C)C(=O)N[C@@H](Cc1ccccc1)[C@@H](O)C(=O)Nc1cccc(-c2noc(S)n2)c1`, the figures for the inhibition against Beta-secretase 1 [1] and on Beta-secretase 1 [2] were 99.8% and 97.2%, respectively.

`CC(C)C[C@H](NC(=O)[C@@H](NC(=O)[C@@H](N)CCC(=O)O)C(C)C)C(=O)N[C@@H](Cc1ccccc1)[C@@H](O)C(=O)Nc1cccc(C(=O)O)c1` displayed an inhibition against Beta-secretase 1 [2] of 44.4%.

Take `CC(C)C[C@H](NC(=O)[C@@H](NC(=O)[C@@H](N)CCC(=O)O)C(C)C)C(=O)N[C@@H](Cc1ccccc1)[C@@H](O)C(=O)Nc1cc(C(=O)O)cc(C(=O)O)c1`: the inhibition at Beta-secretase 1 [1] stood at 98.3%; on Beta-secretase 1 [2], 84.3%.

Turning to `CC(C)C[C@H](NC(=O)[C@@H](NC(=O)[C@@H](N)CCC(=O)O)C(C)C)C(=O)N[C@@H](Cc1ccccc1)[C@@H](O)C(=O)Nc1cccc(C(=N)N)c1`, on Beta-secretase 1 [1], the inhibition was 29.2%.

With `CC(C)C[C@H](NC(=O)[C@@H](NC(=O)[C@@H](N)CCC(=O)O)C(C)C)C(=O)N[C@@H](Cc1ccccc1)[C@@H](O)C(=O)Nc1cccc(-c2noc(=S)[nH]2)c1`, the inhibition against Beta-secretase 1 [1] was determined as 94.5%; at Beta-secretase 1 [2] it was 68.4%.

The molecule `CC(C)C[C@H](NC(=O)[C@@H](NC(=O)[C@@H](N)CNC(=O)c1nnn[nH]1)C(C)C)C(=O)N[C@@H](Cc1ccccc1)[C@@H](O)C(=O)Nc1cccc(-c2nc(=S)o[nH]2)c1` came in with an IC50 at Beta-secretase 1 [3] of 6.4 nM.

As for `CC(C)C[C@H](NC(=O)[C@@H](NC(=O)[C@@H](N)CCC(=O)O)C(C)C)C(=O)N[C@@H](Cc1ccccc1)[C@@H](O)C(=O)Nc1cccc(-c2nsc(=O)[nH]2)c1`, the inhibition came to 91.9% against Beta-secretase 1 [1] and 63.2% against Beta-secretase 1 [2].

For the molecule `CC(C)C[C@H](NC(=O)[C@@H](NC(=O)[C@@H](N)CNC(=O)c1nn[nH]n1)C(C)C)C(=O)N[C@@H](Cc1ccccc1)[C@@H](O)C(=O)Nc1cccc(C(N)=O)c1`, the inhibition was determined as 97.3% against Beta-secretase 1 [1] and 78.1% against Beta-secretase 1 [2].

Take `CC(C)C[C@H](NC(=O)[C@@H](NC(=O)[C@@H](N)CNC(=O)c1nnn[nH]1)C(C)C)C(=O)N[C@@H](Cc1ccccc1)[C@@H](O)C(=O)Nc1cccc(-c2nnn[nH]2)c1`: half-maximal inhibition on Beta-secretase 1 [3] (IC50) required 4.8 nM.

Regarding `CC(C)C[C@H](NC(=O)[C@@H](NC(=O)[C@@H](N)CCC(=O)O)C(C)C)C(=O)N[C@@H](Cc1ccccc1)[C@@H](O)C(=O)Nc1cc(-c2nn[nH]n2)cc(-c2nn[nH]n2)c1`, the inhibition stood at 99.7% against Beta-secretase 1 [1] and 94% against Beta-secretase 1 [2]. The molecule further had an IC50 at Beta-secretase 1 [3] of 6.4 nM.

With `CC(C)C[C@H](NC(=O)[C@@H](NC(=O)[C@@H](N)CNC(=O)c1nnn[nH]1)C(C)C)C(=O)N[C@@H](Cc1ccccc1)[C@@H](O)C(=O)Nc1cc(-c2nnn[nH]2)cc(-c2nnn[nH]2)c1`, the IC50 against Beta-secretase 1 [3] was determined as 1.2 nM.

`CC(C)C[C@H](NC(=O)[C@@H](NC(=O)[C@@H](N)CCC(=O)O)C(C)C)C(=O)N[C@@H](Cc1ccccc1)[C@@H](O)C(=O)Nc1cccc(-c2n[nH]c(=S)n2C)c1` gave an inhibition on Beta-secretase 1 [1] of 74.2%.

In the case of `CC(C)C[C@H](NC(=O)[C@@H](NC(=O)[C@@H](N)CCC(=O)O)C(C)C)C(=O)N[C@@H](Cc1ccccc1)[C@@H](O)C(=O)Nc1cccc(-c2noc(=O)[nH]2)c1`, the inhibition was determined as 94.4% at Beta-secretase 1 [1] and 66.3% at Beta-secretase 1 [2].

On to `CC(C)C[C@H](NC(=O)[C@@H](NC(=O)[C@@H](N)CCC(=O)O)C(C)C)C(=O)N[C@@H](Cc1ccccc1)[C@@H](O)C(=O)Nc1cccc(-c2nn[nH]n2)c1`, for which the inhibition against Beta-secretase 1 [1] was determined as 92.2%; at Beta-secretase 1 [2], 73.7%.

In turn, `CC(C)C[C@H](NC(=O)[C@@H](NC(=O)[C@@H](N)CCC(=O)O)C(C)C)C(=O)N[C@@H](Cc1ccccc1)[C@@H](O)C(=O)Nc1cccc(C(N)=O)c1` returned an inhibition against Beta-secretase 1 [1] of 62.1%.

In the case of `CC(C)C[C@H](NC(=O)[C@@H](NC(=O)[C@@H](N)CCC(=O)O)C(C)C)C(=O)N[C@@H](Cc1ccccc1)[C@@H](O)C(=O)Nc1cccc(-c2n[nH]c(=S)o2)c1`, the inhibition turned out to be 92% against Beta-secretase 1 [1] and 72.3% against Beta-secretase 1 [2].

`CC(C)C[C@H](NC(=O)[C@@H](NC(=O)[C@@H](N)CNC(=O)c1nn[nH]n1)C(C)C)C(=O)N[C@@H](Cc1ccccc1)[C@@H](O)C(=O)Nc1cccc(-c2noc(O)n2)c1`: the inhibition amounted to 100% against Beta-secretase 1 [1] and 94.2% against Beta-secretase 1 [2]. The molecule further returned an IC50 against Beta-secretase 1 [3] of 6.6 nM.

Source of the values: ChEMBL document CHEMBL1147649, “Design and synthesis of potent beta-secretase (BACE1) inhibitors with P1' carboxylic acid bioisosteres” (Bioorg Med Chem Lett, 2006).
